This note sets out measurements from patent US5053006A, “Method for the permanent occlusion of arteries” (priority 1990, dated 1991).

“And” between values parts separate entries of the source, which are not always exact repeats. Equal entries are not always repeated. Some results are limits rather than exact numbers.

The test system of data set [1] is corneal neovasculature. Format: in vivo, New Zealand white rabbit. The text has this: Nine New Zealand white strain rabbits weighting 1 to 2 kg were rendered hypercholesterolemic by foods that contained high levels of cholesterol, as described in Stock et. al., Arch. Ophthalmol., 103:726-730, 1985; and Mendelsohn et al., Ophthalmic Surg., 17:502-508, 1986. Eight days after commencement of the high-cholesterol diet, corneal sutures were implanted in both eyes according to the surgical procedure described in Mendelsohn et al., Ophthalmic Surg., 17:502-508, 1986.
On day 22, slit-lamp photographs and fluorescein angiograms were obtained of all corneas (Mendelsohn et al., Arch. Ophthalmol., 105:983-988, 1987, the disclosure of which is hereby incorporated by reference and relied upon). On the next day, one eye of each rabbit underwent laser surgery, with the other eye serving as a comparative control. Rose bengal dye was dissolved at a concentration of 30 mg/ml in 0.9% saline solution. For the initial injection, the dye solution was administered at a total body concentration of 45 mg/kg. For the two animals in which the procedure took longer than 25 minutes, a booster injection of 15 mg/kg was administered. Irradiations of corneal vessels were carried out with an argon ion laser (Model 95, Cooper Laser-Sonica, Sunnyvale, Calif.) operated in the TEM00 mode at 514.5 nm. The beam was directed toward an aluminized mechanical shutter (AW Vincent Associates, Rochester, NY), which reflected it at a right angle through a 514.5-nm custom interference filter with a transmittance of 92% (Omega Optical, Brattleboro, VT) and then through a fused silica lens with a focal length of 7.5 cm for focusing into a 2.5-m fiberoptic cable 400 μm in diameter. In the optical fiber, the gaussian input beam profile was converted into an output beam. The output was collimated by a plano convex lens 3.5 cm in focal length and focused with a plano convex lens with a focal length of 1.0 cm. The lenses were mounted in a beam telescope attached to an X-Y positioning device (Daedal Inc., Harrison City, Pa.). The beam diameter was measured with a calibrated reticle in the ocular of a ×20 operating microscope. By observing, through a 514.5-nm rejection filter, the fluorescence of a white card impregnated with rhodamine B, the minimum diameter of the organe fluorescent spot at the focal point was determined to be 63 μm. Combining the transmission efficiencies of the three uncoated lenses (92% per lens, 76% total transmission) with those of the optical fiber and interference filter yielded a system transmission efficiency of 61.5%. This reduced the incident power level of the laser from 215 mW to an effective power level of 132 mW; this corresponded to an incident intensity at the focal point of 4.23 kW/cm^2 . During shutter closure, irradiations were carried out in 0.2-s intervals. When the shutter was opened, the low-power beam, which was reflected off an optical flat and through the optical system, was used for aligning the next vessel selected for irradiation.
One eye of each rabbit was subjected to laser applications that were directed toward the vascular branching points of the limbal and corneal feeder vessels adjacent to the sites of lipid deposits. The irradiated blood vessel segment was observed through the ×20 operating microcope fitted with the 514.5-nm rejection band interference filter. Initially, the irradiated segment appeared yellow-orange because the fluorescence of rose bengal had been absorbed into erythrocyte plasma membranes and plasma proteins. As platelets accumulated, the fluorescence became yellowish and less intense. The color gradually disappeared due to the exclusion of red blood cells, indicating occlusion of the vessel. A striking event that preceded the thrombus was intense vasoconstriction at the site of irradiation. Constriction of the vessel could be observed following the initial one to three laser shots in each segment. […]

The test system of data set [2] is femoral artery. Description: Argon laser photothrombotic occlusion of femoral artery (Example 1). Format: in vivo, rat (male Wistar). The text has this: Male Wistar rats, each weighing 280 to 330 gm, were anesthetized with 1.5% halothane and maintained on a 70:30 mixture of nitrous oxide and oxygen delivered by a closely fitting Mylar face mask (Watson et al., J. Neurosurg., 66:748-754, 1987, the disclosure of which is hereby incorporated by reference and relied upon). After separation of the temporal musculature, the middle cerebral artery was exposed via a small subtemporal craniectomy produced by a high-speed drill under an operating microscope; the dura was left intact. The common carotid arteries were exposed bilaterally by a midline incision extending from the mental process to the sternal notch; the sternocleidomastoid muscle was then retracted laterally to expose the underlying artery. Bleeding from the operative site was controlled with pressure and Gelfoam. The animal was then prepared for irradiation by filling the surgical cavity with saline, just submerging the exposed blood vessel. The saline solution was kept clear by frequent suction and irrigation. The femoral arteries were exposed by bilateral inguinal incisions and were prepared for irradiation in a fashion similar to that described above.
As assessed by observation of rose bengal fluorescence, thrombus development in the common carotid or femoral arteries followed a course similar to that observed in the middle cerebral artery, except that the thrombus appeared as a […] as viewed through the blood vessel wall. Intense scattering of the incident laser light was also noted at about the time that arterial pulsations at the level of irradiation ceased.
Ultrastructural studies were carried out at either 30 minutes or 7 days following irradiation. Animals were perfused transcardially with 0.9% sodium chloride solution followed by 2% paraformaldehyde and 2.5% glutaraldehyde in a 0.1 M sodium phosphate buffer. Perfusion pressure was monitored throughout the procedure and was maintained at 100 mm Hg. After perfusion fixation, the femoral and common carotid arteries were isolated and placed in fixative for an additional 2 hours. To isolate the middle cerebral artery, the brain was first removed from the cranial vault and placed in fixative for a 2-hour period. Next, the whole brain was placed in phosphate-buffered 1% osmium tetroxide for 2 minutes.

Data set [3] concerns arteries.
Source text: The method utilizes an intravascular photochemical reaction to induce structural damage to normally non-thrombogenic vascular endothelium. The photochemical process is mediated by rose bengal, a potent photosensitizing dye injected into the bloodstream. Absorption by the injected rose bengal dye of light at a wavelength sufficient to electronically excite the rose bengal molecules induces photochemical injury via singlet oxygen peroxidation reactions in the vascular endothelium at the point of interaction of the rose bengal and the light beam, which is preferably a laser light beam.
A tunable argon ion laser (a Lexel Model 95 argon ion laser, manufactured by Cooper LaserSonics, Santa Clara, Calif.), operated at 514.5 nm, was used for the irradiation. The argon ion laser was focused according to a derived criterion (described below) to facilitate maximally efficient intraluminal growth of the occlusive thrombus. The middle cerebral artery was irradiated with 7.5 mW delivered either continuously or via a beam-chopper operated at 200 Hz (with 75 mW peak power, 10% duty cycle). The carotid and femoral arteries were each irradiated with a chopped beam at 1 W average power (2 W peak power chopped at 200 Hz and 50% duty cycle). […] The middle cerebral artery (diameter approximately 200 μm) was irradiated through a spherical lens of 39-cm focal length at a distance of 40 cm from the artery; with correction for optical reflection losses, the incident intensity was 16 W/sq cm. The femoral artery (diameter 670 μm) and common carotid artery (diameter 800 μm) were irradiated through a spherical lens of 61-cm focal length at distances of 42 and 26 cm from the artery, respectively. In each case, the average incident intensity, with correction for irradiation geometry, was approximately 160 W/sq cm.
A stock solution of rose bengal dye, 30 mg/ml in 0.9% saline, was made up for intravenous injection (via the tail vein) at a dose of 40 mg/kg. Before dye injection, the contralateral (control) arteries were irradiated for 15 minutes at the stated intensities. Following this, simultaneous intravenous infusion of the rose bengal solution (at 20 mg/kg/min over 2 minutes) and irradiation of the ipsilateral artery was begun. Five rats were used for common carotid artery irradiation and four for femoral artery irradiation. In the latter case, two rats received only 20 mg/kg. Middle cerebral artery irradiation was performed in a large series of approximately 70 animals.
Setting [4] is: common carotid and femoral arteries.

Take `O=C([O-])c1c(Cl)c(Cl)c(Cl)c(Cl)c1-c1c2cc(I)c(=O)c(I)c-2oc2c(I)c([O-])c(I)cc12.[Na+].[Na+]` [rose bengal]: in data set [1] (60 mg/kg (45 mg/kg plus booster 15 mg/kg 25 minutes later), individual rabbit), the “No. of Laser Shots” value was 86 and 106. Further, in data set [1] (21 days after laser), the “treated corneal vessels occluded” value is on record as “about 95%”. Also, the fluorescein perfusion entry in data set [1] (21 days after laser, nine treated eyes) is “complete lack of perfusion”. The “laser shots required, average” value in data set [1] (average) is 85 laser shots per quadrant. Also, the “laser shots to vessel constriction” value in data set [1] (each segment) is recorded as “one to three”. Also, in data set [1] (rabbit, in vivo), the “acute and chronic inflammatory cells” value is reported as “mild to moderate numbers”; the “corneal edema or polymorphonuclear leukocyte infiltration” value is reported as “does not produce corneal edema or polymorphonuclear leukocyte infiltration”; the “inflammation along limbal vessels” value is recorded as “No signs of inflammation”; the “new vessels formed in response to treatment” value is “nor were any new vessels formed”. The “laser shots required to occlude the corneal neovasculature” value in data set [1] (range) is reported as 58 to 106 laser shots per quadrant. Moreover, in data set [1] (vs photocoagulation), the “times less incident intensity than photocoagulation” value is given as 8.5 times and the “times less total light exposure than photocoagulation” value is 27.5 times. Moreover, the “complete occlusion, irradiation time” value in data set [2] (40 mg/kg i.v., 514.5 nm argon laser) was at most 3 min. Moreover, in data set [2] (514.5 nm argon laser), the “energy fluence at occlusion” value was “about 35 kJ/sq cm” and the “total energy deposited at occlusion” value is given as 140 to 180 joules (J). Further, the “occlusion, irradiation time” value in data set [2] (one-half the standard dose (20 mg/kg), two rats) is at most 4 min. The same compound returned a time to occlusion in data set [3] (35 kJ/sq cm large arteries, 3.5 kJ/sq cm small arteries) of at most 3 min. In addition, in data set [3] (setting [4]), the “distal extension of mixture of red blood cells and coagulum” value is “at least 10 arterial diameters”; the thrombus composition entry is “thrombus of mixed character”. Besides, the “photochemically induced thrombotic occlusion” value in data set [3] (irradiated arteries of rats injected with rose bengal solution) is recorded as “always observed”.
